Test results taken from ChEMBL document CHEMBL1909046, “DrugMatrix in vitro pharmacology data”.

Legend:
[1] = target: T1, Alpha-1D adrenergic receptor (Homo sapiens, UniProt P25100); type: cell membranes, HEK293, Membrane; conditions: hek293; further: in other assays of this panel Not Active means under 50% inhibition at 10 µM
T1 sequence (P25100 whole entry): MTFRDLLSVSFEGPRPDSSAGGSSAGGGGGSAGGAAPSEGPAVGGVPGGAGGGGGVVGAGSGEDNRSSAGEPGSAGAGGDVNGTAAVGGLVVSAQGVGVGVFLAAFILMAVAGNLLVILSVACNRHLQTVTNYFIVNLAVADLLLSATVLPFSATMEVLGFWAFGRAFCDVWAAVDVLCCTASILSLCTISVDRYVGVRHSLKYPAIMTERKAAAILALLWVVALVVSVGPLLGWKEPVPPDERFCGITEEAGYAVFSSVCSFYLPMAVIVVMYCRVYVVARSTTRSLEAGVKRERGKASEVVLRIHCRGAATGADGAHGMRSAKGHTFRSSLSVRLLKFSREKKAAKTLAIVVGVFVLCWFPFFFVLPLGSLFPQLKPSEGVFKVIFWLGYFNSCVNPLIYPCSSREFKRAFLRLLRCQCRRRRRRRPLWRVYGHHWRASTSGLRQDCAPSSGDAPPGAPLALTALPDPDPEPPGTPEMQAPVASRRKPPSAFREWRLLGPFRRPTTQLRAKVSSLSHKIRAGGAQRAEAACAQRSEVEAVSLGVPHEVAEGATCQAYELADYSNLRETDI

[2] = DRUGMATRIX: Tumor Necrosis Factor (TNF), Non-Selective radioligand binding (ligand: [125I] TNF-alpha); type: cell membranes, Membrane; conditions: u-937; Not Active = under 50% inhibition at 10 µM
[3] = target: T2, Endothelin-1 receptor (Homo sapiens, UniProt P25101); type: cell membranes, Membrane; conditions: cho-k1; further: in other assays of this panel Not Active means under 50% inhibition at 10 µM
T2 sequence (P25101 whole entry): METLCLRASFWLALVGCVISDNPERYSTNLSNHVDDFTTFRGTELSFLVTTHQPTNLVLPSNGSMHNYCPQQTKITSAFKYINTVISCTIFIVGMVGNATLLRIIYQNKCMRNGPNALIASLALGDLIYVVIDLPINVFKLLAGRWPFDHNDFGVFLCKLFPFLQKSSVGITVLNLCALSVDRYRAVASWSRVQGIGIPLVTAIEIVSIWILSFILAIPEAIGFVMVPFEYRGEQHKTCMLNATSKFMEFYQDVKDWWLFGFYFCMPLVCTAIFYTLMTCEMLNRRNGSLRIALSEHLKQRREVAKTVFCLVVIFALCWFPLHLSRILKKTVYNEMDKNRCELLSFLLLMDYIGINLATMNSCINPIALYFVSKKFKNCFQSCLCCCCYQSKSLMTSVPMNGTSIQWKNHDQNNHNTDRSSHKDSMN

[4] = target: Histamine H2 receptor (Homo sapiens, UniProt P25021); type: cell membranes, CHO-K1, Membrane; conditions: cho-k1; further: in other assays of this panel Not Active means under 50% inhibition at 10 µM
Histamine H2 receptor, sequence (P25021 whole entry): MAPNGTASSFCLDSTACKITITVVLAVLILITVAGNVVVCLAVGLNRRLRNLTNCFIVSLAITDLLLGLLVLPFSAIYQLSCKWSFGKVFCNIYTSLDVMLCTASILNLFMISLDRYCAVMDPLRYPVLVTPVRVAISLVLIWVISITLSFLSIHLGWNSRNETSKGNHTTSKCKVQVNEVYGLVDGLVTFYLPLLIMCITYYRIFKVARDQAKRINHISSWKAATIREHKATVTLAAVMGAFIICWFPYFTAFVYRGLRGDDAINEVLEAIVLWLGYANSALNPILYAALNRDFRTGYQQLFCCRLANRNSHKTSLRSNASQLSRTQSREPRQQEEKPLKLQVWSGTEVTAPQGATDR

[5] = target: Melanocortin receptor 3 (Homo sapiens, UniProt P41968); type: cell membranes, Membrane; conditions: hek293; further: in other assays of this panel Not Active means under 50% inhibition at 10 µM
Melanocortin receptor 3, sequence (P41968 whole entry): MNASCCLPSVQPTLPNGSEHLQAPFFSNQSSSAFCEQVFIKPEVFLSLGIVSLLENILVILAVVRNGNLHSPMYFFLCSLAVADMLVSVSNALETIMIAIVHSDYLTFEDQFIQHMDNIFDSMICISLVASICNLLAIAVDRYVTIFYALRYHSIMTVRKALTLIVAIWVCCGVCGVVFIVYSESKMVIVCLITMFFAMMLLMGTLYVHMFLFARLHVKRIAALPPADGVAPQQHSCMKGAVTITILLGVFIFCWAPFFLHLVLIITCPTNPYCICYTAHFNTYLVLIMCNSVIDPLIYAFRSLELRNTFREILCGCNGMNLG

[6] = target: Melanocortin receptor 4 (Homo sapiens, UniProt P32245); type: cell membranes, Membrane; conditions: hek293; further: in other assays of this panel Not Active means under 50% inhibition at 10 µM
Melanocortin receptor 4, sequence (P32245 whole entry): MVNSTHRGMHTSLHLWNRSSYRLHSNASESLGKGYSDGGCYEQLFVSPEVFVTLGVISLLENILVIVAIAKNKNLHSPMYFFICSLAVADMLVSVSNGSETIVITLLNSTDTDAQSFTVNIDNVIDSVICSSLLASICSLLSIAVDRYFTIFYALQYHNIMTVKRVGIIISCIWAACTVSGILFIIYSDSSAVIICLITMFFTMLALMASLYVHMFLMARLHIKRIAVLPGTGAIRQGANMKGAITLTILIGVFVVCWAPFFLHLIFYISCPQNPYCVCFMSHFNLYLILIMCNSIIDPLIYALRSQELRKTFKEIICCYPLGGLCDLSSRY

[7] = DRUGMATRIX: Potassium Channel [KATP] radioligand binding (ligand: [3H] Glyburide); type: cell membranes, Membrane; conditions: hit-t15; Not Active = under 50% inhibition at 10 µM

CC(C)Cc1ccc(C(C)C(=O)O)cc1 (configuration not stated) [IBUPROFEN]
Not Active: IC50 [1] | IC50 [2] | Ki [2] | IC50 [3] | IC50 [4] | IC50 [5] | IC50 [6] | IC50 [7] | Ki [7]

COc1ccc2c(c1)c(CC(=O)O)c(C)n2C(=O)c1ccc(Cl)cc1 [INDOMETHACIN]
Not Active: IC50 [1] | IC50 [2] | Ki [2] | IC50 [3] | IC50 [4] | IC50 [5] | IC50 [6] | IC50 [7] | Ki [7]

CCc1c2c(nc3ccc(OC(=O)N4CCC(N5CCCCC5)CC4)cc13)-c1cc3c(c(=O)n1C2)COC(=O)[C@]3(O)CC [IRINOTECAN]
Not Active: IC50 [1] | IC50 [2] | Ki [2] | IC50 [3] | IC50 [4] | IC50 [5] | IC50 [6] | IC50 [7] | Ki [7]

CC(C(=O)O)c1cccc(C(=O)c2ccccc2)c1 (configuration not stated) [KETOPROFEN]
Not Active: IC50 [1] | IC50 [2] | Ki [2] | IC50 [3] | IC50 [4] | IC50 [5] | IC50 [6] | IC50 [7] | Ki [7]

Nc1ccn([C@@H]2CS[C@H](CO)O2)c(=O)n1 [LAMIVUDINE]
Not Active: IC50 [1] | IC50 [2] | Ki [2] | IC50 [3] | IC50 [4] | IC50 [5] | IC50 [6] | IC50 [7] | Ki [7]

O=S(=O)([O-])CCS.[Na+] [MESNA]
Not Active: IC50 [1] | IC50 [2] | Ki [2] | IC50 [3] | IC50 [4] | IC50 [5] | IC50 [6] | IC50 [7] | Ki [7]

C#C[C@]1(O)CC[C@H]2[C@@H]3CCc4cc(OC)ccc4[C@H]3CC[C@@]21C [MESTRANOL]
Not Active: IC50 [1] | IC50 [2] | Ki [2] | IC50 [3] | IC50 [4] | IC50 [5] | IC50 [6] | IC50 [7] | Ki [7]

CC(=O)Nc1cccc(O)c1 [METACETAMOL]
Not Active: IC50 [1] | IC50 [2] | Ki [2] | IC50 [3] | IC50 [4] | IC50 [5] | IC50 [6] | IC50 [7] | Ki [7]

Cc1ncc([N+](=O)[O-])n1CCO [METRONIDAZOLE]
Not Active: IC50 [1] | IC50 [2] | Ki [2] | IC50 [3] | IC50 [4] | IC50 [5] | IC50 [6] | IC50 [7] | Ki [7]

CC(C)(C(=O)c1cccnc1)c1cccnc1 [METYRAPONE]
Not Active: IC50 [1] | IC50 [2] | Ki [2] | IC50 [3] | IC50 [4] | IC50 [5] | IC50 [6] | IC50 [7] | Ki [7]

Oc1ccc(OCc2ccccc2)cc1 [MONOBENZONE]
Not Active: IC50 [1] | IC50 [2] | Ki [2] | IC50 [3] | IC50 [4] | IC50 [5] | IC50 [6] | IC50 [7] | Ki [7]

CC(C)(Oc1ccc(C2CCCc3ccccc32)cc1)C(=O)O (configuration not stated) [NAFENOPIN]
Not Active: IC50 [1] | IC50 [2] | Ki [2] | IC50 [3] | IC50 [4] | IC50 [5] | IC50 [6] | IC50 [7] | Ki [7]

COc1ccc2cc([C@H](C)C(=O)O)ccc2c1 [NAPROXEN]
Not Active: IC50 [1] | IC50 [2] | Ki [2] | IC50 [3] | IC50 [4] | IC50 [5] | IC50 [6] | IC50 [7] | Ki [7]
